Data set [1] in a line: clinical. Conditions: human, plasma, oral.
Description: (§1) Healthy subjects receive a single dose of drug at the highest dose studied in the liver-impaired subjects in order to make relative comparison to the PK aspects of Nalbuphine extended release (ER).
(§2) Cohort 1 consists of subjects with impaired hepatic function divided into three groups with some subjects in each of the mild Child-Pugh A category (Group 1), the moderate Child-Pugh B category (Group 2), and the severe Child-Pugh category C (Group 3). Cohort 2-4 consists of subjects with impaired hepatic function divided into two groups with some subjects in each of the mild Child-Pugh A category (Group 1), and the moderate Child-Pugh B category (Group 2).
(§3) Dosing: Subjects receive a single ascending dose, under fasting condition, at the following dose levels:
(§4) Each of the cohorts is dosed sequentially starting with the lowest dose. Subjects with mild or moderate hepatic impairment enrolled in Cohort 1 are optionally enrolled in Cohorts 2, 3, and 4. For each dose cohort, enrollment of subjects with mild or moderate hepatic impairment is done in parallel. An evaluation of safety and tolerability of the combined mild and moderate hepatic impairment subject data is done at each dose level before proceeding to the next dose level.
(§5) Blood: Blood from the patients of each cohort is collected in K2EDTA tubes. The plasma fractions are separated by centrifugation and stored frozen until analysis. Blood samples are collected at the following time points: 0 h (prior to the dose), 1.5, 3, 5, 7, 9, 12, 24, 36, 48, and 72 h after the dose.
For data set [2] the following is noted: cohorts 1-4.
Description: as §1, §2, §3, §4, §5

As to `Cl.Oc1ccc2c3c1OC1[C@@H](O)CC[C@@]4(O)[C@@H](C2)N(CC2CCC2)CC[C@]314` (stereo partly drawn) [nalbuphine, 17-(cyclobutylmethyl)-4,5α-epoxymorphinian-3, 6α, 14-triol, hydrochloride], the area under the curve AUC(0-t) came to 48.9 ng·h/mL in data set [1] (27 mg, AUC0-t Mean, 27 mg single dose, Cohort 1, mild hepatic impairment (Child Pugh A)); 244 ng·h/mL in data set [1] (27 mg, AUC0-t Mean, 27 mg single dose, Cohort 1, moderate hepatic impairment (Child Pugh B)); 489 ng·h/mL in data set [1] (27 mg, AUC0-t Mean, 27 mg single dose, Cohort 1, severe hepatic impairment (Child Pugh C)); 375 ng·h/mL in data set [1] (162 mg, mean AUC0-t, 162 mg single dose, Cohort 4, mild hepatic impairment (Child Pugh A)); 1230 ng·h/mL in data set [1] (162 mg, mean AUC0-t, 162 mg single dose, Cohort 4, moderate hepatic impairment (Child Pugh B)). Also, the Cmax was 3.56 ng/mL in data set [1] (27 mg, Cmax Mean, 27 mg single dose, Cohort 1, mild hepatic impairment (Child Pugh A)); 14.6 ng/mL in data set [1] (27 mg, Cmax Mean, 27 mg single dose, Cohort 1, moderate hepatic impairment (Child Pugh B)); 28.3 ng/mL in data set [1] (27 mg, Cmax Mean, 27 mg single dose, Cohort 1, severe hepatic impairment (Child Pugh C)); 19.9 ng/mL in data set [1] (162 mg, mean Cmax, 162 mg single dose, Cohort 4, mild hepatic impairment (Child Pugh A)); 65.4 ng/mL in data set [1] (162 mg, mean Cmax, 162 mg single dose, Cohort 4, moderate hepatic impairment (Child Pugh B)). In addition, the Half-life across cohorts result in data set [2] is recorded as “similar”.

For orientation: AUC(0-t) means exposure summed from dosing to a finite time, without extrapolation to infinity. Low readings indicate less exposure, high ones more exposure. One may read the Cmax as the maximum level reached in the sampled fluid or tissue.

The values above are taken from patent US12274696B2, “Methods of administering nalbuphine” (Trevi Therapeutics, Inc., priority 2020, dated 2025).
